In general, IC50 refers to the concentration needed to halve the response being measured. Read a high IC50 as a need for much substance.

The target of the assay is PAI-1 (Homo sapiens, UniProt P05121). The assay is described as follows: PAI-1 inhibition in the S2251 chromogenic substrate assay (PAI functional assay). As to conditions: for INHIBITION OF PAI-1 (degree of inhibition): Table 1, first part, unit assumed; for IC50: PAI-1, S2251 assay, Table 2. The class given is biochemical. The procedure: In this assay, a compound is incubated with PAI-1 prior to addition to the tPA assay system. Inhibition of PAI-1 results in the production of plasmin from plasminogen. […]
Compounds of formula (A) were tested in a PAI chromogenic substrate assay. […] In turn, the plasmin cleaved the chromogenic substrate S2251 (Kabi-Vitrum) producing pNA (p-nitroaniline) which was detected scectrophotometrically at 405 nm.

PAI-1, sequence (P05121 24-402): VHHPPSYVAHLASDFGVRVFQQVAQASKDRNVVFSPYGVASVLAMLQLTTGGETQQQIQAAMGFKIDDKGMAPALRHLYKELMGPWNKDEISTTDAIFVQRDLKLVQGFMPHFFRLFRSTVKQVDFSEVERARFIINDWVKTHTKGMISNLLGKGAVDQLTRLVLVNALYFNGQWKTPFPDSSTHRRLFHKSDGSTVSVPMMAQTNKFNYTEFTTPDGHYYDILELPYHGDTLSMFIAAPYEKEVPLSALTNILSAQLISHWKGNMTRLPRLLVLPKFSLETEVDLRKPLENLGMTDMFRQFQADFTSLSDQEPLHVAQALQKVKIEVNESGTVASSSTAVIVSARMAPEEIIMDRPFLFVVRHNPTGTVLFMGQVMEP

For `CC(C)(C)OC(=O)n1cccc1/C=c1\[nH]c(=O)/c(=C/c2ccccc2)[nH]c1=O` [Compound 1470, (3Z,6Z)-3-Benzylidene-6-(2-(1-tertbutoxycarbonyl)pyrrolyl)methylene-2,5-piperazinedione], the IC50 fell in the range of 50 to 100 µM. This molecule also came in with an INHIBITION OF PAI-1 (degree of inhibition) (6.25 μm) of 0%. Besides, the INHIBITION OF PAI-1 (degree of inhibition) (12.5 μm) was found to be 0%. The molecule further gave an INHIBITION OF PAI-1 (degree of inhibition) (25 μm) of 2%. The molecule also gave an INHIBITION OF PAI-1 (degree of inhibition) (50 μm) of 20%. In addition, the INHIBITION OF PAI-1 (degree of inhibition) (100 μm) was found to be 70%.

Molecule `CC(C)(C)OC(=O)n1cc(/C=c2\[nH]c(=O)/c(=C/c3ccccc3)[nH]c2=O)c2ccccc21` [Compound 1471, (3Z,6Z)-3-Benzylidene-6-(3-(1-tert-butoxycarbonyl)indolyl)methylene-2,5-piperazinedione] yielded a 50% inhibitory concentration (IC50) of 25 to 50 µM. For the setting “6.25 μm”, this molecule displayed an INHIBITION OF PAI-1 (degree of inhibition) of 0%. Besides, the INHIBITION OF PAI-1 (degree of inhibition) (12.5 μm) was found to be 6%. The molecule also showed an INHIBITION OF PAI-1 (degree of inhibition) (25 μm) of 20%. The molecule also returned an INHIBITION OF PAI-1 (degree of inhibition) (50 μm) of 60%. This molecule also gave an INHIBITION OF PAI-1 (degree of inhibition) (100 μm) of 80%.

On to `COc1ccc(/C=c2\[nH]c(=O)/c(=C/c3cccs3)[nH]c2=O)cc1` [Compound 1474, (3Z,6Z)-3-(4-Methoxybenzylidene)-6-(2-thienylmethylene)-2,5-piperazinedione], for which the IC50 lay within 25 to 50 µM. Also, where the note is “25 μm”, the INHIBITION OF PAI-1 (degree of inhibition) is 28%. For the setting “50 μm”, this molecule displayed an INHIBITION OF PAI-1 (degree of inhibition) of 52%. Also, for the setting “100 μm”, the INHIBITION OF PAI-1 (degree of inhibition) turned out to be 64%.

The molecule `COc1ccc(/C=c2\[nH]c(=O)/c(=C/c3ccoc3)[nH]c2=O)cc1` [Compound 1476, (3Z,6Z)-3-(4-Methoxybenzylidene)-6-(3-furylmethylene)-2,5-piperazinedione] displayed an IC50 of 50 to 100 µM. For the same molecule, the INHIBITION OF PAI-1 (degree of inhibition) (25 μm) is 18%. Besides, the INHIBITION OF PAI-1 (degree of inhibition) (50 μm) is 48%. For the same molecule, the INHIBITION OF PAI-1 (degree of inhibition) (100 μm) was determined as 68%.

Regarding `COc1ccc(/C=c2\[nH]c(=O)/c(=C/c3cn(C(=O)OC(C)(C)C)c4ccccc34)[nH]c2=O)cc1` [Compound 1506, (3Z,6Z)-3-(4-Methoxybenzylidene)-6-(3-(1-tert-butoxycarbonyl)indolyl)methylene-2,5-piperazinedione], the half-maximal inhibitory concentration (IC50) fell in the range of 25 to 50 µM. The INHIBITION OF PAI-1 (degree of inhibition) (6.25 μm) was determined as 2%. For the same molecule, for the setting “12.5 μm”, the INHIBITION OF PAI-1 (degree of inhibition) was 4%. The molecule also came in with an INHIBITION OF PAI-1 (degree of inhibition) (25 μm) of 26%. In addition, the INHIBITION OF PAI-1 (degree of inhibition) (50 μm) turned out to be 58%. This molecule registered an INHIBITION OF PAI-1 (degree of inhibition) (100 μm) of 75%.

`COc1ccc(/C=c2\[nH]c(=O)/c(=C/c3cccn3C(=O)OC(C)(C)C)[nH]c2=O)cc1` [Compound 1507, (3Z,6Z)-3-(4-Methoxybenzylidene)-6-(2-(1-tertbutoxycarbonyl)pyrrolyl)methylene-2,5-piperazinedione] came in with an IC50 of 25 to 50 µM. In addition, under “6.25 μm”, the INHIBITION OF PAI-1 (degree of inhibition) stood at 1%. The INHIBITION OF PAI-1 (degree of inhibition) (12.5 μm) is 1%. Further, the INHIBITION OF PAI-1 (degree of inhibition) (25 μm) stood at 45%. Also, under “50 μm”, the INHIBITION OF PAI-1 (degree of inhibition) came to 62%. The INHIBITION OF PAI-1 (degree of inhibition) (100 μm) stood at 78%.

Regarding `O=c1[nH]/c(=C\c2c[nH]c3ccccc23)c(=O)[nH]/c1=C\c1ccccc1` [Compound 1509, (3Z,6Z)-3-Benzylidene-6-(3-indolylmethylene)-2,5-piperazinedione], the IC50 fell in the range of 50 to 100 µM. Further, the INHIBITION OF PAI-1 (degree of inhibition) (6.25 μm) came out at 1%. This molecule displayed an INHIBITION OF PAI-1 (degree of inhibition) (12.5 μm) of 1%. Moreover, the INHIBITION OF PAI-1 (degree of inhibition) (25 μm) turned out to be 1%. This molecule also returned an INHIBITION OF PAI-1 (degree of inhibition) (50 μm) of 35%. For the same molecule, the INHIBITION OF PAI-1 (degree of inhibition) (100 μm) was 58%.

As for `O=c1[nH]/c(=C\c2c(Cl)cccc2Cl)c(=O)[nH]/c1=C\c1ccoc1` [Compound 1542, (3Z,6Z)-3-(2,6-Dichlorobenzylidene)-6-(3-furylmethylene)-2,5-piperazinedione], the IC50 was in the range of 50 to 100 µM. In addition, the INHIBITION OF PAI-1 (degree of inhibition) (6.25 μm) was 1%. The INHIBITION OF PAI-1 (degree of inhibition) (12.5 μm) was found to be 1%. Under “25 μm”, this molecule came in with an INHIBITION OF PAI-1 (degree of inhibition) of 9%. In addition, the INHIBITION OF PAI-1 (degree of inhibition) (50 μm) is 41%. For the same molecule, for the setting “100 μm”, the INHIBITION OF PAI-1 (degree of inhibition) turned out to be 75%.

As to `COc1ccc(/C=c2\[nH]c(=O)/c(=C/c3c[nH]c4ccccc34)[nH]c2=O)cc1` [Compound 1545, (3Z,6Z)-3-(3-Indolylmethylene)-6-(4-methoxybenzylidene)-2,5-piperazinedione], the INHIBITION OF PAI-1 (degree of inhibition) was 1% (6.25 μm); 5% (12.5 μm); 39% (25 μm); 64% (50 μm); 87% (100 μm).

On to `CC(C)(C)OC(=O)n1cc(/C=c2\[nH]c(=O)/c(=C/c3c(Cl)cccc3Cl)[nH]c2=O)c2ccccc21` [Compound 1560, (3Z,6Z)-3-(2,6-Dichlorobenzylidene)-6-(1-tert-butoxycarbonyl-3-indolyl)methylene-2,5-piperazinedione], for which the IC50 lay within 50 to 100 µM. For the setting “6.25 μm”, this molecule showed an INHIBITION OF PAI-1 (degree of inhibition) of 13%. The molecule further yielded an INHIBITION OF PAI-1 (degree of inhibition) (12.5 μm) of 34%. For the same molecule, for the setting “25 μm”, the INHIBITION OF PAI-1 (degree of inhibition) was 46%. Where the note is “50 μm”, this molecule yielded an INHIBITION OF PAI-1 (degree of inhibition) of 48%. The molecule also had an INHIBITION OF PAI-1 (degree of inhibition) (100 μm) of 50%.

On to `CC(C)(C)OC(=O)n1cc(/C=c2\[nH]c(=O)/c(=C/c3cccs3)[nH]c2=O)c2ccccc21` [Compound 1618, (3Z,6Z)-3-(1-tert-butoxycarbonyl-3-indolyl)methylene-6-(2-thenylidene)-2,5-piperazinedione], for which the IC50 was 50 to 100 µM. Also, for the setting “12.5 μm”, the INHIBITION OF PAI-1 (degree of inhibition) is 1%. For the setting “25 μm”, this molecule registered an INHIBITION OF PAI-1 (degree of inhibition) of 3%. The same molecule gave an INHIBITION OF PAI-1 (degree of inhibition) (50 μm) of 32%. In addition, where the note is “100 μm”, the INHIBITION OF PAI-1 (degree of inhibition) amounted to 51%.

`COc1ccc(/C=c2\[nH]c(=O)/c(=C/c3ccc(CN)cc3)[nH]c2=O)cc1` [Compound 1657, (3Z,6Z)-3-(4-Aminomethylbenzylidene)-6-(4-methoxybenzylidene)-2,5-piperazinedione] gave an IC50 of 25 to 50 µM. The molecule also yielded an INHIBITION OF PAI-1 (degree of inhibition) (12.5 μm) of 2%. In addition, under “25 μm”, the INHIBITION OF PAI-1 (degree of inhibition) is 46%. The molecule further registered an INHIBITION OF PAI-1 (degree of inhibition) (50 μm) of 60%. Under “100 μm”, the INHIBITION OF PAI-1 (degree of inhibition) turned out to be 53%.

`CC(=O)Nc1ccc(/C=c2\[nH]c(=O)/c(=C/C3CCCCC3)[nH]c2=O)cc1` [Compound 1672] gave a half-maximal inhibitory concentration (IC50) of 50 to 100 µM. The same molecule registered an INHIBITION OF PAI-1 (degree of inhibition) (6.25 μm) of 1%. This molecule also showed an INHIBITION OF PAI-1 (degree of inhibition) (12.5 μm) of 4%. Under “25 μm”, this molecule had an INHIBITION OF PAI-1 (degree of inhibition) of 13%. Also, the INHIBITION OF PAI-1 (degree of inhibition) (50 μm) was found to be 44%. The INHIBITION OF PAI-1 (degree of inhibition) (100 μm) turned out to be 70%.

In turn, `CC(=O)Nc1ccc(/C=c2\[nH]c(=O)/c(=C/C=Cc3ccccc3)[nH]c2=O)cc1` [Compound 1676, (3Z,6Z)-3-(4-Acetamidobenzylidene)-6-cinnamylidene-2,5-piperazinedione] returned a concentration for half-maximal inhibition (IC50) of 12 to 25 µM. This molecule displayed an INHIBITION OF PAI-1 (degree of inhibition) (6.25 μm) of 1%. For the same molecule, the INHIBITION OF PAI-1 (degree of inhibition) (12.5 μm) amounted to 12%. This molecule also returned an INHIBITION OF PAI-1 (degree of inhibition) (25 μm) of 52%. For the same molecule, the INHIBITION OF PAI-1 (degree of inhibition) (50 μm) came to 51%. This molecule also yielded an INHIBITION OF PAI-1 (degree of inhibition) (100 μm) of 29%.

Regarding `COc1ccc(/C=c2\[nH]c(=O)/c(=C/c3cn(S(C)(=O)=O)c4ccccc34)[nH]c2=O)cc1` [Compound 1693, (3Z,6Z)-3-(1-methanesulfonyl-3-indolyl)methylene-6-(4-methoxybenzylidene)-2,5-piperazinedione], the IC50 lay in the range of 50 to 100 µM. This molecule displayed an INHIBITION OF PAI-1 (degree of inhibition) (12.5 μm) of 0%. In addition, the INHIBITION OF PAI-1 (degree of inhibition) (25 μm) is 1%. Further, the INHIBITION OF PAI-1 (degree of inhibition) (50 μm) came out at 2%. For the same molecule, the INHIBITION OF PAI-1 (degree of inhibition) (100 μm) turned out to be 89%.

As to `COc1ccc(/C=c2\[nH]c(=O)/c(=C/c3cc4ccccc4[nH]3)[nH]c2=O)cc1` [Compound 1718, (3Z,6Z)-3-(2-Indolylmethylene)-6-(4-methoxybenzylidene)-2,5-piperazinedione], the IC50 was in the range of 50 to 100 µM. Further, where the note is “6.25 μm”, the INHIBITION OF PAI-1 (degree of inhibition) is 1%. The same molecule gave an INHIBITION OF PAI-1 (degree of inhibition) (12.5 μm) of 0%. In addition, the INHIBITION OF PAI-1 (degree of inhibition) (25 μm) amounted to 0%. The molecule further came in with an INHIBITION OF PAI-1 (degree of inhibition) (50 μm) of 1%. Further, under “100 μm”, the INHIBITION OF PAI-1 (degree of inhibition) turned out to be 62%.

Regarding `O=c1[nH]/c(=C\c2ccc3c(c2)OCO3)c(=O)[nH]/c1=C\c1ccccc1` [Compound 1808, (3Z,6Z)-3-Benzylidene-6-(3,4-methylenedioxybenzylidene)-2,5-piperazinedione], the INHIBITION OF PAI-1 (degree of inhibition) by setting is: (6.25 μm) 1%; (12.5 μm) 2%; (25 μm) 73%; (50 μm) 48%; (100 μm) 76%.

Take `COc1ccc(/C=c2\[nH]c(=O)/c(=C/c3ccc4c(c3)OCO4)[nH]c2=O)cc1` [Compound 1809, (3Z,6Z)-3-(4-Methoxybenzylidene)-6-(3,4-methylenedioxybenzylidene)-2,5-piperazinedione]: the INHIBITION OF PAI-1 (degree of inhibition) reads like this: (6.25 μm) 1%; (12.5 μm) 7%; (25 μm) 84%; (50 μm) 76%; (100 μm) 81%.

`CC(=O)Nc1ccc(/C=c2\[nH]c(=O)/c(=C/c3ccc4c(c3)OCO4)[nH]c2=O)cc1` [Compound 1845, (3Z,6Z)-3-(4-Acetamidobenzylidene)-6-(3,4-methylenedioxybenzylidene)-2,5-piperazinedione]: the INHIBITION OF PAI-1 (degree of inhibition) came out at 53% (6.25 μm); 60% (12.5 μm); 49% (25 μm); 30% (50 μm); 14% (100 μm).

(Values after patent US5891877A, “Pharmaceutical compounds” (Xenova Limited, priority 1996, dated 1999).)
